Laboratory results from patent US20240115654A1, “INTRAVENOUS ADMINISTRATION OF ENGINEERED ANTIMICROBIAL AMPHIPHILIC PEPTIDES” (priority 2021, published 2024).
“And” between values parts separate entries of the source, which are not always exact repeats. Equal entries are not always repeated. Peptide text beside a SMILES is read from it.

Conditions: 1.0 mg/kg, 30 min IV infusion, individual monkeys
Method: Animals will be obtained from the Test Facility's colony of adult male cynomolgus monkeys (Macaca fascicularis) of Chinese origin. Animals will be weighed prior to dosing.
Animals will be fasted a minimum of 2 hours prior to procedures requiring the administration of ketamine anesthesia. The diet will also be supplemented with other nutrients by feeding items such as raisins or fresh fruits that are presented to the animal as part of an environmental enrichment program. Offering items known to cause diarrhea will be avoided.
Intravenous administration will be via 30 minute infusion into a temporary percutaneous catheter placed into a saphenous vein. […]
The peptide will be purified from plasma samples from each macaque using a cation exchange-based solid-phase extraction process. Prior to extraction, a known concentration of a mass-adjusted internal standard (IS) will be added to assess recovery and allow for quantitation. […] Compound plasma concentrations will be determined by comparing to and compensating with co-purified IS peak intensity and validated calibrated standard curves.
Toxicokinetic parameters will be calculated using non-compartmental methods as implemented in the Phoenix® WinNonlin® ver. […] Values below the lower limit of quantitation (BLQ) will be assigned a value of zero for the toxicokinetic calculations. […]

For C[C@@H](O)[C@H](NC(=O)[C@H](Cc1c[nH]cn1)NC(=O)[C@@H](NC(=O)[C@H](CCCCN)NC(=O)[C@H](CCCCN)NC(=O)[C@@H](NC(=O)[C@H](CCCCN)NC(=O)[C@@H](NC(=O)[C@H](Cc1c[nH]cn1)NC(=O)[C@@H](NC(=O)[C@H](CCCCN)NC(=O)[C@H](CCCCN)NC(=O)[C@@H](NC(=O)[C@H](CCCCN)NC(=O)[C@@H](NC(=O)[C@H](Cc1c[nH]cn1)NC(=O)[C@@H](NC(=O)[C@H](CCCCN)NC(=O)[C@@H](N)CCCCN)[C@@H](C)O)[C@@H](C)O)[C@@H](C)O)[C@@H](C)O)[C@@H](C)O)[C@@H](C)O)[C@@H](C)O)C(=O)N[C@@H](CCCCN)C(=O)O [SEQ ID NO: 13] (H-KKTHTKTKKTHTKTKKTHTK-OH), the “Dose Normalized Cmax” value was 5000 and 7000 and 6000.
